In patent US9814730B2 (FLAMINA HOLDING AG, priority 2013, dated 2017):

Tested on: autocrine HCG production in adult cells
Assay: Inhibition of autocrine HCG production in adult cells (in vitro experiments)
Format: cell-based, human
Settings: very low amount of active agent
Experimental: Extrapolations of in vitro experiments indicate that already 0.1 mg to 2 mg per kg body weight and per year, preferably 0.5 mg to 1 mg per kg body weight and per year of the active agent are sufficient. However, as detailed below the dosage can be up to a factor 5 higher and can thus range between 0.1 mg to 10 mg per kg body weight and per year.

In the case of C/C=C\[C@]1(O)CC[C@H]2[C@@H]3CCC4=CC(=O)CCC4=C3[C@@H](c3ccc(N(C)C)cc3)C[C@@]21C [RU534, Aglepristone], the “inhibition of autocrine HCG production” value is reported as “successfully achieved”.
